Test systems include T47D; MDA-MB-231; LOX IMVI; MOLT-4; HOP-92; HOP-62; HCT-15; SF-268; SK-MEL-28; ACHN; LXFL 529; 786-0; MDA-MB-435; KM-20L2; M14; K562; Malme-3M; UO-31; HT-29; PC-3.
Test in all cases: DTP human tumour cell line panel, 48 h

The record followed here is ChEMBL document CHEMBL1201862, “PubChem BioAssay data set” (2004).

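Compound exposure: 48 hours, 5 concentrations, 96-well plates. GI50 = concentration required for 50% inhibition of growth.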 Active and inactive are the calls of the source. No stated cut-off is given here; in the data, active = GI50 up to about 1.1 µM and inactive = higher.

As to `Cn1c2ccccc2c(=O)c2c(O)cc3c(c21)CC(C1(C)CO1)O3` (stereo not given), the GI50 in the test on T47D was 11500 nM (inactive); with MDA-MB-231, 2030 nM (inactive); in the test on LOX IMVI it was < 11.1 nM (active); in the test with MOLT-4, 66.5 nM (active); in the test on HOP-92 it was 9080 nM (inactive); in the test on HOP-62, 3150 nM (inactive). For the same compound, the 50% growth inhibitory concentration (GI50) with HCT-15 is 4690 nM; in the test with SF-268 it was 942 nM (active); with SK-MEL-28, 2790 nM (inactive); in the test on ACHN, 2000 nM (inactive); in the test with LXFL 529 it was 229 nM (active); in the test with 786-0, 1710 nM (inactive). Moreover, the GI50 is 1640 nM (inactive) in the test with MDA-MB-435; 4660 nM (inactive) in the test with KM-20L2; 1510 nM (inactive) in the test with M14; 260 nM (active) in the test with K562; 10500 nM (inactive) in the test on Malme-3M; 1420 nM (inactive) with UO-31. Also, the GI50 was 4410 nM (inactive) in the test with HT-29 and 3370 nM (inactive) with PC-3.
